Results reported in ChEMBL document CHEMBL6127079, “Design and synthesis of spiro[pyrrolidine-3,3'-quinoline]-2,2'-dione derivatives as novel antifungal agents targeting chitin synthase” (Eur J Med Chem, 2024).
Values after ≈ are worked out from the molar mass of the structure shown.

Key:
Cryptococcus neoformans [1] = experiment: Antifungal activity against Cryptococcus neoformans ATCC 32719 incubated for 24 hrs by half broth dilution based checkerboard method; format: functional
Aspergillus fumigatus [2] = experiment: Antifungal activity against Aspergillus fumigatus GIMCC 3.19 assessed as Polyoxin B MIC incubated for 24 hrs in presence of fluconazole by half broth dilution based checkerboard method; format: functional
Aspergillus flavus [3] = experiment: Antifungal activity against Aspergillus flavus ATCC 16870 assessed as fluconazole MIC incubated for 24 hrs in presence of fluconazole by half broth dilution based checkerboard method; format: functional
Candida albicans [4] = experiment: Antifungal activity against Candida albicans ATCC 76615 assessed as inhibition of growth incubated for 24 hrs by two-fold serial dilution method; format: functional
Candida albicans [5] = experiment: Antifungal activity against Candida albicans ATCC 76615 incubated for 24 hrs by half broth dilution based checkerboard method; format: functional
Cryptococcus neoformans [6] = experiment: Synergistic antifungal activity against Cryptococcus neoformans ATCC 32719 assessed as fractional inhibitory concentration index in presence of Polyoxin B incubated for 24 hrs by half broth dilution based checkerboard method; format: functional
Candida albicans [7] = experiment: Antifungal activity against micafungin-resistant Candida albicans ATCC 76615 assessed as inhibition of fungal growth incubated for 24 to 72 hrs; format: functional; details: time 24-72 hrs
Aspergillus fumigatus [8] = experiment: Synergistic antifungal activity against Aspergillus fumigatus GIMCC 3.19 assessed as fractional inhibitory concentration index in presence of Polyoxin B incubated for 24 hrs by half broth dilution based checkerboard method; format: functional
Cryptococcus neoformans [9] = experiment: Antifungal activity against Cryptococcus neoformans ATCC 32719 assessed as Polyoxin B MIC incubated for 24 hrs in presence of fluconazole by half broth dilution based checkerboard method; format: functional
Aspergillus flavus [10] = experiment: Synergistic antifungal activity against Aspergillus flavus ATCC 16870 assessed as fractional inhibitory concentration index in presence of Polyoxin B incubated for 24 hrs by half broth dilution based checkerboard method; format: functional
Aspergillus flavus [11] = experiment: Antifungal activity against Aspergillus flavus ATCC 16870 incubated for 24 hrs by half broth dilution based checkerboard method; format: functional
Aspergillus fumigatus [12] = experiment: Antifungal activity against fluconazole-resistant Aspergillus fumigatus GIMCC 3.19 assessed as inhibition of fungal growth incubated for 24 to 72 hrs; format: functional; details: time 24-72 hrs
Candida albicans [13] = experiment: Antifungal activity against Candida albicans ATCC 76615 assessed as fluconazole MIC incubated for 24 hrs in presence of fluconazole by half broth dilution based checkerboard method; format: functional
[14] = Inhibition of chitin synthase extracted from Candida tropicalis ATCC 750 using UDP-GlcNAc as substrate assessed as inhibition rate by TMB based microplate analyzer relative to control
Candida tropicalis = experiment: Inhibition of chitin synthase extracted from Candida tropicalis ATCC 750 using UDP-GlcNAc as substrate assessed as inhibition rate at 300 ug/ml by TMB based microplate analyzer relative to control; details: dose 300.0 µg/ml
Cryptococcus neoformans [15] = experiment: Antifungal activity against Cryptococcus neoformans ATCC 32719 assessed as fluconazole MIC incubated for 24 hrs in presence of fluconazole by half broth dilution based checkerboard method; format: functional
Cryptococcus neoformans [16] = experiment: Synergistic antifungal activity against Cryptococcus neoformans ATCC 32719 assessed as fractional inhibitory concentration index in presence of fluconazole incubated for 24 hrs by half broth dilution based checkerboard method; format: functional
Aspergillus flavus [17] = experiment: Antifungal activity against Aspergillus flavus ATCC 16870 assessed as Polyoxin B MIC incubated for 24 hrs in presence of fluconazole by half broth dilution based checkerboard method; format: functional
Aspergillus fumigatus [18] = experiment: Antifungal activity against Aspergillus fumigatus GIMCC 3.19 assessed as fluconazole MIC incubated for 24 hrs in presence of fluconazole by half broth dilution based checkerboard method; format: functional
Cryptococcus neoformans [19] = experiment: Antifungal activity against Cryptococcus neoformans ATCC 32719 assessed as inhibition of growth incubated for 24 hrs by two-fold serial dilution method; format: functional
Candida albicans [20] = experiment: Synergistic antifungal activity against Candida albicans ATCC 76615 assessed as fractional inhibitory concentration index in presence of Polyoxin B incubated for 24 hrs by half broth dilution based checkerboard method; format: functional
Aspergillus flavus [21] = experiment: Synergistic antifungal activity against Aspergillus flavus ATCC 16870 assessed as fractional inhibitory concentration index in presence of fluconazole incubated for 24 hrs by half broth dilution based checkerboard method; format: functional
Cryptococcus neoformans [22] = experiment: Antifungal activity against fluconazole-resistant Cryptococcus neoformans ATCC 32719 assessed as inhibition of fungal growth incubated for 24 to 72 hrs; format: functional; details: time 24-72 hrs
Candida albicans [23] = experiment: Antifungal activity against fluconazole-resistant Candida albicans ATCC 76615 assessed as inhibition of fungal growth incubated for 24 to 72 hrs; format: functional; details: time 24-72 hrs
Aspergillus fumigatus [24] = experiment: Antifungal activity against Aspergillus fumigatus GIMCC 3.19 assessed as inhibition of growth incubated for 24 hrs by two-fold serial dilution method; format: functional
Aspergillus fumigatus [25] = experiment: Synergistic antifungal activity against Aspergillus fumigatus GIMCC 3.19 assessed as fractional inhibitory concentration index in presence of fluconazole incubated for 24 hrs by half broth dilution based checkerboard method; format: functional
Aspergillus flavus [26] = experiment: Antifungal activity against Aspergillus flavus ATCC 16870 assessed as inhibition of growth incubated for 24 hrs by two-fold serial dilution method; format: functional
Aspergillus fumigatus [27] = experiment: Antifungal activity against Aspergillus fumigatus GIMCC 3.19 incubated for 24 hrs by half broth dilution based checkerboard method; format: functional
Candida albicans [28] = experiment: Antifungal activity against Candida albicans ATCC 76615 assessed as Polyoxin B MIC incubated for 24 hrs in presence of fluconazole by half broth dilution based checkerboard method; format: functional
Candida albicans [29] = experiment: Antifungal activity against drug-resistant Candida albicans ATCC 76615 assessed as inhibition of cell wall synthesis in presence of sorbitol incubated for 24 hrs; format: functional
Aspergillus flavus [30] = experiment: Antifungal activity against fluconazole-resistant Aspergillus flavus ATCC 16870 assessed as inhibition of fungal growth incubated for 24 to 72 hrs; format: functional; details: time 24-72 hrs
Cryptococcus neoformans [31] = experiment: Antifungal activity against drug-resistant Cryptococcus neoformans ATCC 32719 assessed as inhibition of cell wall synthesis in presence of sorbitol incubated for 24 hrs; format: functional
Aspergillus fumigatus [32] = experiment: Antifungal activity against drug-resistant Aspergillus fumigatus GIMCC 3.19 assessed as inhibition of cell wall synthesis in presence of sorbitol incubated for 24 hrs; format: functional
Candida albicans [33] = experiment: Synergistic antifungal activity against Candida albicans ATCC 76615 assessed as fractional inhibitory concentration index in presence of fluconazole incubated for 24 hrs by half broth dilution based checkerboard method; format: functional
Aspergillus flavus [34] = experiment: Antifungal activity against drug-resistant Aspergillus flavus ATCC 16870 assessed as inhibition of cell wall synthesis in presence of sorbitol incubated for 24 hrs; format: functional

SMILES: O=C(/C=C/C(=O)Nc1ccc2c(c1)NC(=O)C1(CCNC1=O)C2)Nc1ccc(Br)cc1 (racemic)
- MIC (Cryptococcus neoformans [1]): 4 µg/mL
- MIC (Aspergillus fumigatus [2]): 16 µg/mL
- MIC (Aspergillus flavus [3]): 4 µg/mL
- MIC (Candida albicans [4]): 16 µg/mL (≈ 33.1 µM)
- MIC (Candida albicans [5]): 4 µg/mL
- fractional inhibitory concentration index (FICI) (Cryptococcus neoformans [6]): 1
- MIC (Candida albicans [7]): 32 µg/mL (≈ 66.2 µM)
- fractional inhibitory concentration index (FICI) (Aspergillus fumigatus [8]): 0.75
- MIC (Cryptococcus neoformans [9]): 4 µg/mL
- fractional inhibitory concentration index (FICI) (Aspergillus flavus [10]): 1.5
- MIC (Aspergillus flavus [11]): 8 µg/mL
- MIC (Aspergillus fumigatus [12]): 64 µg/mL (≈ 132 µM)
- MIC (Candida albicans [13]): 4 µg/mL
- IC50 [14]: 179 µM
- inhibition (Candida tropicalis): 72.7%
- MIC (Cryptococcus neoformans [15]): 4 µg/mL
- fractional inhibitory concentration index (FICI) (Cryptococcus neoformans [16]): 1
- MIC (Aspergillus flavus [17]): 8 µg/mL
- MIC (Aspergillus fumigatus [18]): 2 µg/mL
- MIC (Cryptococcus neoformans [19]): 16 µg/mL (≈ 33.1 µM)
- fractional inhibitory concentration index (FICI) (Candida albicans [20]): 0.75
- fractional inhibitory concentration index (FICI) (Aspergillus flavus [21]): 1.5
- MIC (Cryptococcus neoformans [22]): 32 µg/mL (≈ 66.2 µM)
- MIC (Candida albicans [23]): 64 µg/mL (≈ 132 µM)
- MIC (Aspergillus fumigatus [24]): 32 µg/mL (≈ 66.2 µM)
- fractional inhibitory concentration index (FICI) (Aspergillus fumigatus [25]): 0.75
- MIC (Aspergillus flavus [26]): 16 µg/mL (≈ 33.1 µM)
- MIC (Aspergillus fumigatus [27]): 8 µg/mL
- MIC (Candida albicans [28]): 8 µg/mL
- MIC (Candida albicans [29]): 128 µg/mL
- MIC (Aspergillus flavus [30]): 64 µg/mL (≈ 132 µM)
- MIC (Cryptococcus neoformans [31]): 256 µg/mL
- MIC (Aspergillus fumigatus [32]): 256 µg/mL
- fractional inhibitory concentration index (FICI) (Candida albicans [33]): 0.75

SMILES: O=C(CN1CCC(C(=O)Nc2cccc3ccccc23)CC1)Nc1ccc2c(c1)NC(=O)C1(CCNC1=O)C2 (racemic)
- MIC (Cryptococcus neoformans [1]): 2 µg/mL
- MIC (Aspergillus fumigatus [2]): 8 µg/mL
- MIC (Aspergillus flavus [3]): 1.5 µg/mL
- MIC (Candida albicans [4]): 16 µg/mL (≈ 30.4 µM)
- MIC (Candida albicans [5]): 16 µg/mL
- fractional inhibitory concentration index (FICI) (Cryptococcus neoformans [6]): 1
- MIC (Candida albicans [7]): 32 µg/mL (≈ 60.9 µM)
- fractional inhibitory concentration index (FICI) (Aspergillus fumigatus [8]): 1.5
- MIC (Cryptococcus neoformans [9]): 32 µg/mL
- fractional inhibitory concentration index (FICI) (Aspergillus flavus [10]): 2
- MIC (Aspergillus flavus [11]): 8 µg/mL
- MIC (Aspergillus flavus [34]): 128 µg/mL
- MIC (Aspergillus fumigatus [12]): 64 µg/mL (≈ 122 µM)
- MIC (Candida albicans [13]): 1 µg/mL
- IC50 [14]: 99 µM
- inhibition (Candida tropicalis): 84%
- MIC (Cryptococcus neoformans [15]): 0.75 µg/mL
- fractional inhibitory concentration index (FICI) (Cryptococcus neoformans [16]): 1
- MIC (Aspergillus flavus [17]): 8 µg/mL
- MIC (Aspergillus fumigatus [18]): 2 µg/mL
- MIC (Cryptococcus neoformans [19]): 32 µg/mL (≈ 60.9 µM)
- fractional inhibitory concentration index (FICI) (Candida albicans [20]): 0.75
- fractional inhibitory concentration index (FICI) (Aspergillus flavus [21]): 0.75
- MIC (Cryptococcus neoformans [22]): 64 µg/mL (≈ 122 µM)
- MIC (Candida albicans [23]): 32 µg/mL (≈ 60.9 µM)
- MIC (Aspergillus fumigatus [24]): 8 µg/mL (≈ 15.2 µM)
- fractional inhibitory concentration index (FICI) (Aspergillus fumigatus [25]): 1
- MIC (Aspergillus flavus [26]): 8 µg/mL (≈ 15.2 µM)
- MIC (Aspergillus fumigatus [27]): 8 µg/mL
- MIC (Candida albicans [28]): 16 µg/mL
- MIC (Candida albicans [29]): 256 µg/mL
- MIC (Aspergillus flavus [30]): 64 µg/mL (≈ 122 µM)
- MIC (Cryptococcus neoformans [31]): 512 µg/mL
- MIC (Aspergillus fumigatus [32]): 512 µg/mL
- fractional inhibitory concentration index (FICI) (Candida albicans [33]): 0.75

SMILES: O=C(CN1CCC(C(=O)Nc2ccc(Br)cc2)CC1)Nc1ccc2c(c1)NC(=O)C1(CCNC1=O)C2 (racemic)
- MIC (Cryptococcus neoformans [1]): 8 µg/mL
- MIC (Aspergillus fumigatus [2]): 16 µg/mL
- MIC (Aspergillus flavus [3]): 4 µg/mL
- MIC (Candida albicans [4]): 16 µg/mL (≈ 28.9 µM)
- MIC (Candida albicans [5]): 16 µg/mL
- fractional inhibitory concentration index (FICI) (Cryptococcus neoformans [6]): 1.5
- MIC (Candida albicans [7]): 32 µg/mL (≈ 57.7 µM)
- fractional inhibitory concentration index (FICI) (Aspergillus fumigatus [8]): 1
- MIC (Cryptococcus neoformans [9]): 8 µg/mL
- fractional inhibitory concentration index (FICI) (Aspergillus flavus [10]): 0.5
- MIC (Aspergillus flavus [11]): 32 µg/mL
- MIC (Aspergillus flavus [34]): 256 µg/mL
- MIC (Aspergillus fumigatus [12]): 64 µg/mL (≈ 115 µM)
- MIC (Candida albicans [13]): 4 µg/mL
- IC50 [14]: 116 µM
- inhibition (Candida tropicalis): 63%
- MIC (Cryptococcus neoformans [15]): 2 µg/mL
- fractional inhibitory concentration index (FICI) (Cryptococcus neoformans [16]): 0.75
- MIC (Aspergillus flavus [17]): 32 µg/mL
- MIC (Aspergillus fumigatus [18]): 2 µg/mL
- MIC (Cryptococcus neoformans [19]): 8 µg/mL (≈ 14.4 µM)
- fractional inhibitory concentration index (FICI) (Candida albicans [20]): 1
- fractional inhibitory concentration index (FICI) (Aspergillus flavus [21]): 1.25
- MIC (Cryptococcus neoformans [22]): 32 µg/mL (≈ 57.7 µM)
- MIC (Candida albicans [23]): 32 µg/mL (≈ 57.7 µM)
- MIC (Aspergillus fumigatus [24]): 16 µg/mL (≈ 28.9 µM)
- fractional inhibitory concentration index (FICI) (Aspergillus fumigatus [25]): 1
- MIC (Aspergillus flavus [26]): 32 µg/mL (≈ 57.7 µM)
- MIC (Aspergillus fumigatus [27]): 16 µg/mL
- MIC (Candida albicans [28]): 16 µg/mL
- MIC (Candida albicans [29]): 256 µg/mL
- MIC (Aspergillus flavus [30]): 64 µg/mL (≈ 115 µM)
- MIC (Cryptococcus neoformans [31]): 128 µg/mL
- MIC (Aspergillus fumigatus [32]): 512 µg/mL
- fractional inhibitory concentration index (FICI) (Candida albicans [33]): 1
